Measured values from patent publication US20250206732A1, “COMPOUNDS AND METHODS FOR THE TARGETED DEGRADATION OF KRAS” (Arvinas Operations, Inc., priority 2022, published 2025).
Blank lines part the entries; values can stand above or below the compound they belong to.

Biological target: T1, AsPC-1 HiBiT-KRASG12D (Homo sapiens, UniProt P01116, G12D)
T1 construct: insert the HiBiT tag onto the N-terminus of one or more of the endogenous KRAS alleles; endogenous in cells; host or cells: AsPC-1 (ATCC CRL-1682), CRISPR-Cas9 knock-in clone, one tagged allele
Test: HiBiT degradation assay (G12D), AsPC-1 HiBiT-KRASG12D cells
Type: cell-based
Conditions: 24 hours treatment; for Dmax: ASPC1, AsPC-1 HiBiT-KRASG12D cells, maximum degradation observed; for DC50: AsPC-1 HiBiT-KRASG12D cells, HiBiT luminescence
Method in brief: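 Luminescence read-out of HiBiT-tagged endogenous KRASG12D in AsPC-1 cells after 24 h compound exposure at 37° C; lytic Nano-Glo HiBiT detection, 45 min at room temperature. A parallel alamar blue read (4 h) checked viability, normalized to DMSO-only controls.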

T1 sequence (P01116 1-188 isoform P01116-2 G12D): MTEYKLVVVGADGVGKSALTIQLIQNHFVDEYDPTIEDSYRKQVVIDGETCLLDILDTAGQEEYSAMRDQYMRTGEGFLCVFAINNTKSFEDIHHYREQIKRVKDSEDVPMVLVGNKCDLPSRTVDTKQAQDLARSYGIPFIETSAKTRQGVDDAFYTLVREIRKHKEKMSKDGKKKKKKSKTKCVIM

Compound: CCc1cccc2cc(O)cc(-c3ncc4c(N5CC6CCC(C5)N6)nc(OCCN5CCC(CC6CN(c7cc([C@H](C(=O)N8C[C@H](O)C[C@H]8C(=O)N[C@@H](C)c8ccc(-c9ccnn9C)cc8)C(C)C)on7)C6)CC5)nc4c3F)c12 [Compound 212, (2S,4R)-1-[(2R)-2-(3-{3-[(1-{2-[(4-{3,8-diazabicyclo[3.2.1]octan-3-yl}-7-(8-ethyl-3-hydroxynaphthalen-1-yl)-8-fluoropyrido[4,3-d]pyrimidin-2-yl)oxy]ethyl}piperidin-4-yl)methyl]azetidin-1-yl}-1,2-oxazol-5-yl)-3-methylbutanoyl]-4-hydroxy-N-[(1S)-1-[4-(1-methyl-1H-pyrazol-5-yl)phenyl]ethyl]pyrrolidine-2-carboxamide]
Dmax: 80 to 100% | DC50: < 600 nM

Compound: CCc1cccc2cc(O)cc(-c3ncc4c(N5CC6CCC(C5)N6)nc(OC[C@]56CCCN5[C@H](COC(=O)N5CCC(Oc7cc([C@H](C(=O)N8C[C@H](O)C[C@H]8C(=O)N[C@@H](C)c8ccc(-c9scnc9C)cc8)C(C)C)on7)CC5)CC6)nc4c3F)c12 [Compound 116, [(3S,7aR)-7a-{[(4-{3,8-diazabicyclo[3.2.1]octan-3-yl}-7-(8-ethyl-3-hydroxynaphthalen-1-yl)-8-fluoropyrido[4,3-d]pyrimidin-2-yl)oxy]methyl}-hexahydro-1H-pyrrolizin-3-yl]methyl 4-({5-[(2R)-1-[(2S,4R)-4-hydroxy-2-{[(1S)-1-[4-(4-methyl-1,3-thiazol-5-yl)phenyl]ethyl]carbamoyl}pyrrolidin-1-yl]-3-methyl-1-oxobutan-2-yl]-1,2-oxazol-3-yl}oxy)piperidine-1-carboxylate]
Dmax: 80 to 100% | DC50: < 600 nM

Compound: CCc1cccc2cc(O)cc(-c3ncc4c(N5CC6CCC(C5)N6)nc(OC[C@@]56CCCN5[C@@H](COC(=O)N5CCN(c7cc(C(C(=O)N8C[C@H](O)C[C@H]8C(=O)N[C@@H](C)c8ccc(-c9scnc9C)cc8)C(C)C)on7)CC5)CC6)nc4c3F)c12 (single isomer, unassigned) [Compound 108, [(3R,7aS)-7a-{[(4-{3,8-diazabicyclo[3.2.1]octan-3-yl}-7-(8-ethyl-3-hydroxynaphthalen-1-yl)-8-fluoropyrido[4,3-d]pyrimidin-2-yl)oxy]methyl}-hexahydro-1H-pyrrolizin-3-yl]methyl 4-{5-[(2R*)-1-[(2S,4R)-4-hydroxy-2-{[(1S)-1-[4-(4-methyl-1,3-thiazol-5-yl)phenyl]ethyl]carbamoyl}pyrrolidin-1-yl]-3-methyl-1-oxobutan-2-yl]-1,2-oxazol-3-yl}piperazine-1-carboxylate]
Dmax: 80 to 100% | DC50: < 600 nM

Dmax: < 20% | DC50: 600 to 1000 nM
Compound: CCc1cccc2cc(O)cc(-c3ncc4c(N5CCCCCC5)nc(OC[C@]56CCCN5[C@H](COC(=O)N5CCC(Oc7cc([C@@H](C(=O)N8C[C@H](O)C[C@H]8C(=O)N[C@@H](C)c8ccc(-c9scnc9C)cc8)C(C)C)on7)CC5)CC6)nc4c3F)c12 [Compound 282, [(3S,8R)-8-[[4-(azepan-1-yl)-7-(8-ethyl-3-hydroxy-1-naphthyl)-8-fluoro-pyrido[4,3-d]pyrimidin-2-yl]oxymethyl]-1,2,3,5,6,7-hexahydropyrrolizin-3-yl]methyl 4-[5-[(1S)-1-[(2S,4R)-4-hydroxy-2-[[(1S)-1-[4-(4-methylthiazol-5-yl)phenyl]ethyl]carbamoyl]pyrrolidine-1-carbonyl]-2-methyl-propyl]isoxazol-3-yl]oxypiperidine-1-carboxylate]

Compound: CCc1cccc2cc(O)cc(-c3ncc4c(N5CC6CCC(C5)N6)nc(OCCN5CC[C@@H]6[C@@H](CCN6c6cc([C@@H](C(=O)N7C[C@H](O)C[C@H]7C(=O)N[C@@H](C)c7ccc(-c8scnc8C)cc7)C(C)C)on6)C5)nc4c3F)c12 (relative stereo) [Compound 76, (2S,4R)-1-[(2R*)-2-{3-[(3aR**,7aR***)-5-{2-[(4-{3,8-diazabicyclo[3.2.1]octan-3-yl}-7-(8-ethyl-3-hydroxynaphthalen-1-yl)-8-fluoropyrido[4,3-d]pyrimidin-2-yl)oxy]ethyl}-octahydro-1H-pyrrolo[3,2-c]pyridin-1-yl]-1,2-oxazol-5-yl}-3-methylbutanoyl]-4-hydroxy-N-[(1S)-1-[4-(4-methyl-1,3-thiazol-5-yl)phenyl]ethyl]pyrrolidine-2-carboxamide]
Dmax: 20 to 60% | DC50: 1000 to 3000 nM

Compound: CCc1cccc2cc(O)cc(-c3ncc4c(N5CC6CCC(C5)N6)nc(OC[C@]56CCCN5[C@@H](COC(=O)N5CCN(c7cc([C@H](C(=O)N8C[C@H](O)C[C@H]8C(=O)N[C@@H](C)c8ccc(-c9scnc9C)cc8)C(C)C)on7)CC5)CC6)nc4c3F)c12 (relative stereo) [Compound 110, [(3R*,7aR**)-7a-{[(4-{3,8-diazabicyclo[3.2.1]octan-3-yl}-7-(8-ethyl-3-hydroxynaphthalen-1-yl)-8-fluoropyrido[4,3-d]pyrimidin-2-yl)oxy]methyl}-hexahydro-1H-pyrrolizin-3-yl]methyl 4-{5-[(2R***)-1-[(2S,4R)-4-hydroxy-2-{[(1S)-1-[4-(4-methyl-1,3-thiazol-5-yl)phenyl]ethyl]carbamoyl}pyrrolidin-1-yl]-3-methyl-1-oxobutan-2-yl]-1,2-oxazol-3-yl}piperazine-1-carboxylate]
Dmax: 80 to 100% | DC50: < 600 nM

Compound: CCc1cccc2cc(O)cc(-c3ncc4c(N5CC6CCC(C5)N6)nc(OC5CCN(CC6CCN(c7cc([C@@H](C(=O)N8C[C@H](O)C[C@H]8C(=O)N[C@@H](C)c8ccc(-c9scnc9C)cc8)C(C)C)on7)CC6)CC5)nc4c3F)c12 [Compound 167, (2S,4R)-1-[(2S)-2-{3-[4-({4-[(4-{3,8-diazabicyclo[3.2.1]octan-3-yl}-7-(8-ethyl-3-hydroxynaphthalen-1-yl)-8-fluoropyrido[4,3-d]pyrimidin-2-yl)oxy]piperidin-1-yl}methyl)piperidin-1-yl]-1,2-oxazol-5-yl}-3-methylbutanoyl]-4-hydroxy-N-[(1S)-1-[4-(4-methyl-1,3-thiazol-5-yl)phenyl]ethyl]pyrrolidine-2-carboxamide]
Dmax: 20 to 60% | DC50: 1000 to 3000 nM

Compound: CCc1cccc2cc(O)cc(-c3ncc4c(N5CC6CCC(C5)N6)nc(OC[C@@H]5CC[C@@H](COC(=O)N6CC7(C6)CN(c6cc([C@H](C(=O)N8C[C@H](O)C[C@H]8C(=O)N[C@@H](C)c8ccc(-c9scnc9C)cc8)C(C)C)on6)C7)N5C)nc4c3F)c12 [Compound 213, [(2S,5S)-5-{[(4-{3,8-diazabicyclo[3.2.1]octan-3-yl}-7-(8-ethyl-3-hydroxynaphthalen-1-yl)-8-fluoropyrido[4,3-d]pyrimidin-2-yl)oxy]methyl}-1-methylpyrrolidin-2-yl]methyl 6-{5-[(2R)-1-[(2S,4R)-4-hydroxy-2-{[(1S)-1-[4-(4-methyl-1,3-thiazol-5-yl)phenyl]ethyl]carbamoyl}pyrrolidin-1-yl]-3-methyl-1-oxobutan-2-yl]-1,2-oxazol-3-yl}-2,6-diazaspiro[3.3]heptane-2-carboxylate]
Dmax: 80 to 100% | DC50: < 600 nM

Compound: CCc1cccc2cc(O)cc(-c3ncc4c(N5CC6CCC(C5)N6)nc(OC[C@@]56CCCN5[C@H](COC(=O)N5CCC(Oc7cc([C@@H](C(=O)N8C[C@H](O)C[C@H]8C(=O)N[C@@H](C)c8ccc(-c9scnc9C)cc8)C(C)C)on7)CC5)CC6)nc4c3F)c12 [Compound 118, [(3S,7aS)-7a-{[(4-{3,8-diazabicyclo[3.2.1]octan-3-yl}-7-(8-ethyl-3-hydroxynaphthalen-1-yl)-8-fluoropyrido[4,3-d]pyrimidin-2-yl)oxy]methyl}-hexahydro-1H-pyrrolizin-3-yl]methyl 4-({5-[(2S)-1-[(2S,4R)-4-hydroxy-2-{[(1S)-1-[4-(4-methyl-1,3-thiazol-5-yl)phenyl]ethyl]carbamoyl}pyrrolidin-1-yl]-3-methyl-1-oxobutan-2-yl]-1,2-oxazol-3-yl}oxy)piperidine-1-carboxylate]
Dmax: 20 to 60% | DC50: 600 to 1000 nM

Compound: CCc1cccc2cc(O)cc(-c3ncc4c(N5CC6CCC(C5)N6)nc(OCCN5CCC(CN6CC7(C6)CN(c6cc([C@H](C(=O)N8C[C@H](O)C[C@H]8C(=O)N[C@@H](C)c8ccc(-c9scnc9C)cc8)C(C)C)on6)C7)CC5)nc4c3F)c12 [Compound 235, (2S,4R)-1-[(2R)-2-[3-[6-[1-[2-[[4-(3,8-diazabicyclo[3.2.1]octan-3-yl)-7-(8-ethyl-3-hydroxy-1-naphthyl)-8-fluoro-pyrido[4,3-d]pyrimidin-2-yl]oxyethyl]-4-piperidyl]methyl]-2,6-diazaspiro[3.3]heptan-2-yl]isoxazol-5-yl]-3-methyl-butanoyl]-4-hydroxy-N-[(1S)-1-[4-(4-methylthiazol-5-yl)phenyl]ethyl]pyrrolidine-2-carboxamide]
Dmax: 80 to 100% | DC50: < 600 nM

Compound: CCc1cccc2cc(O)cc(-c3ncc4c(N5C[C@H]6CC[C@@H](C5)N6)nc(OCCN5CCC(C)(CN6CCN(c7cc([C@@H](C(=O)N8C[C@H](O)C[C@H]8C(=O)N[C@@H](C)c8ccc(-c9scnc9C)cc8)C(C)C)on7)CC6)CC5)nc4c3F)c12 [Compound 188, (2S,4R)-1-((S)-2-(3-(4-((1-(2-((4-((1R,5S)-3,8-diazabicyclo[3.2.1]octan-3-yl)-7-(8-ethyl-3-hydroxynaphthalen-1-yl)-8-fluoropyrido[4,3-d]pyrimidin-2-yl)oxy)ethyl)-4-methylpiperidin-4-yl)methyl)piperazin-1-yl)isoxazol-5-yl)-3-methylbutanoyl)-4-hydroxy-N—((S)-1-(4-(4-methylthiazol-5-yl)phenyl)ethyl)pyrrolidine-2-carboxamide]
Dmax: 20 to 60% | DC50: 1000 to 3000 nM
